Measured values reported in patent US12447187B2, “Composition for preventing and treating inflammatory bowel disease including puer tea extract” (priority 2021, dated 2025).

System: DSS-induced ulcerative colitis
Experiment: DSS-induced ulcerative colitis model (body weight, colon length, histology, DAI)
Type: in vivo, ICR mice
Settings: 3% DSS mice
Description: Experimental animals, ICR mice (6 weeks old male) were supplied from Daehan Biolink (Chungcheongbuk-do Province, Korea) and used. After 1 week of adaptation of experimental animals, 7 animals were accommodated in each group. During the experiment, the breeding conditions were 23±2° C. for a temperature, 55±10% for a relative humidity, and 150 to 300 Lux for lighting with a 12-hour cycle (artificial lighting, 8:00 am-8:00 pm). Feed was powdered feed for laboratory animals, and water was provided freely during the experiment period. Acute ulcerative colitis was induced in mice while allowing free intake of water containing 3% (w/v) of DDS for 14 days. During the experiment, each group of experimental animals was observed by checking whether the mice lost weight, urine and feces tests, and bleeding every day. Experimental animals were classified into the following four groups and the experiment was performed (Table 1). Puer tea extract and ASA were orally administered once a day for 14 days from the day of DDS treatment. After the experiment, mice were sacrificed, and the results were measured. Ulcerative colitis is measured by clinical signs such as weight loss, diarrhea with bleeding and mucus, and shortens the length of the colon. […] Weight loss is calculated as the difference between the initial and present weight. Visible rectal bleeding means diarrhea accompanied by bleeding or total rectal bleeding, and the DAI was calculated by the following equation. […] Puer tea extract (100 mg/kg) was orally administered once a day to 7 mice induced with 3% DSS for 14 days, and then the weights of the mice were measured, and the mean of the data in the triplicate experiment was expressed as ±S.D. Puer tea extract (100 mg/kg) was orally administered once a day for 14 days to 7 mice induced with 3% DSS for 14 days, and then the colon was removed, and the colon length was evaluated (A of FIG. 2). […] DAI was calculated as in Examples 1-5), and the mean of the experimental data was expressed as ±SD.

Substance: 5-acetylsalicylic acid [5-ASA]
- colon length (100 mg/kg orally once a day for 14 days, normal group 8.01±0.16, DSS group 5.25±0.12): 6.77±0.33 cm
- thickness of the barrier muscle layer (H&E colon sections) (14 days, vs DSS group): became thinner again
- DAI clinical symptoms (weight loss, diarrhea, rectal bleeding) (once a day for 14 days, vs DSS single treatment): significantly decreased
